According to patent publication EP1981504B1, “THIADIAZOLE DERIVATIVES FOR THE TREATMENT OF NEURO DEGENERATIVE DISEASES” (NV reMYND, priority 2006, dated 2007):
Converted amounts (≈) assume the structure as drawn.

Test system: M17-SYNwt cells
Assay: α-synuclein cytotoxicity assay (LDH leakage from paraquat-treated α-synuclein over-expressing neuroblastoma cells)
Format: cell-based, human
Conditions: paraquat 32 mM, 40 hours, LDH release; for %I: percent inhibition of synuclein cytotoxicity at most effective concentration of test compound, relative to untreated paraquat cells; for EC50: Homo sapiens, Neuroblastoma cell, 10 point curves in duplicate
Method: Subsequently, LDH activity was determined using Promega Cytotox 96 NonRadioactive cytotoxicity assay, (Cat. G1780) according the supplier's instructions.
This corresponds to the following equation: (LDHreleaseoftreatedparaquatcellsatnon-effectiveconcentrationoftestcmpd)−(LDHreleaseoftreatedparaquatcellsatmosteffectiveconcentrationoftestcmpd)/(LDHreleaseofuntreatedparaquatcells)−(LDHreleasecontrolcells)*100% [formula]
1,2,4-thiadazole compounds made according to the methods described herein were screened for activity using the α-synuclein cytotoxicity assay as described above. Dose responses were carried out on all compounds found to be active (10 point curves in duplicate).

| SMILES | %I [%] | EC50 [µg/mL] |
| --- | --- | --- |
| O=C(Nc1ccc(F)c(F)c1)N1CCN(c2nc(Cc3ccc(F)cc3)ns2)CC1 [Compound 28, N-(3,4-difluorophenyl)-4-[3-(4-fluorobenzyl)-1,2,4-thiadiazol-5-yl]piperazine-1-carboxamide] | 64 |  |
| COc1cc(NC(=O)N2CCN(c3nc(Cc4ccc(F)cc4)ns3)CC2C)cc(OC)c1 (stereo not drawn) [Compound 29, N-(3,5-dimethoxyphenyl)-4-[3-(4-fluorobenzyl)-1,2,4-thiadiazol-5-yl]-2-methylpiperazine-1-carboxamide] | 51 |  |
| CC(C)(C)c1ccc(S(=O)(=O)N2CCN(c3nc(Cc4ccc(F)cc4)ns3)CC2)cc1 [Compound 30, 1-[4-tert-butylphenylsulfonyl]-4-[3-(4-fluorobenzyl)-1,2,4-thiadiazol-5-yl]piperazine] | 51 |  |
| COc1ccc(S(=O)(=O)N2CCN(c3nc(Cc4ccc(Cl)cc4)ns3)CC2)cc1 [Compound 31, 1-[4-methoxyphenylsulfonyl]-4-[3-(4-chlorobenzyl)-1,2,4-thiadiazol-5-yl]piperazine] | 59 | 0.000169 (≈ 0.000363 µM) |
| COc1ccc(S(=O)(=O)N2CCN(c3nc(Cc4ccc(F)cc4)ns3)CC2)cc1 [Compound 32, 1-[4-methoxyphenylsulfonyl]-4-[3-(4-fluorobenzyl)-1,2,4-thiadiazol-5-yl]piperazine] | 78 | 0.0024 (≈ 0.00535 µM) |
| O=S(=O)(c1ccc(F)cc1)N1CCN(c2nc(Cc3ccc(Cl)cc3)ns2)CC1 [Compound 33, 1-[4-fluorophenylsulfonyl]-4-[3-(4-chlorobenzyl)-1,2,4-thiadiazol-5-yl]piperazine] | 53 | 0.00282 (≈ 0.00622 µM) |
| Cc1ccc(Cc2nsc(N3CCN(S(=O)(=O)c4ccc(Cl)cc4)C(C)C3)n2)cc1 (stereo not drawn) [Compound 34, 1-[4-chlorophenylsulfonyl]-4-[3-(4-methylbenzyl)-1,2,4-thiadiazol-5-yl]-2-methylpiperazine] | 66 | 0.0657 (≈ 0.142 µM) |
| Cc1ccc(Cc2nsc(N3CCN(S(=O)(=O)c4cccc5ccccc45)CC3)n2)cc1 [Compound 35, 1-[1-naphtylsulfonyl]-4-[3-(4-methylbenzyl)-1,2,4-thiadiazol-5-yl]piperazine] | 47 | 0.0472 (≈ 0.102 µM) |
| Cc1ccc(Cc2nsc(N3CCN(S(=O)(=O)c4cc(Cl)ccc4Cl)C(C)C3)n2)cc1 (stereo not drawn) [Compound 36, 1-[2,5-dichlorophenylsulfonyl]-4-[3-(4-methylbenzyl)-1,2,4-thiadiazol-5-yl]-2-methylpiperazine] | 52 | 0.1 (≈ 0.201 µM) |
| Cc1ccc(Cc2nsc(N3CCN(S(=O)(=O)c4c(C)cc(C)cc4C)CC3)n2)cc1 [Compound 37, 1-[2,4,6-trimethylphenylsulfonyl]-4-[3-(4-methylbenzyl)-1,2,4-thiadiazol-5-yl]piperazine] | 48 | 0.0731 (≈ 0.16 µM) |
| Cc1ccc(Cc2nsc(N3CCN(S(=O)(=O)c4ccc5ccccc5c4)C(C)C3)n2)cc1 (stereo not drawn) [Compound 38, 1-[2-naphtylsulfonyl]-4-[3-(4-methylbenzyl)-1,2,4-thiadiazol-5-yl]-2-methylpiperazine] | 78 | 0.13 (≈ 0.272 µM) |
| O=S(=O)(c1cc(Cl)ccc1Cl)N1CCN(c2nc(Cc3ccc(Cl)cc3)ns2)CC1 [Compound 39, 1-[2,5-dichlorophenylsulfonyl]-4-[3-(4-chlorobenzyl)-1,2,4-thiadiazol-5-yl]piperazine] | 25 | 0.16 (≈ 0.318 µM) |
| Cc1ccc(Cc2nsc(N3CCN(S(=O)(=O)c4cccc5ccccc45)C(C)C3)n2)cc1 (stereo not drawn) [Compound 41] | 54 | 0.53 (≈ 1.11 µM) |
| Cc1ccc(Cc2nsc(N3CCN(S(=O)(=O)c4ccc(C(C)(C)C)cc4)C(C)C3)n2)cc1 (stereo not drawn) [Compound 42, 1-[4-tert-butylphenylsulfonyl]-4-[3-(4-methylbenzyl)-1,2,4-thiadiazol-5-yl]-2-methylpiperazine] | 33 | 0.87 (≈ 1.79 µM) |
| CC1CN(c2nc(Cc3ccc(Cl)cc3)ns2)CCN1S(=O)(=O)c1cccc2ccccc12 (stereo not drawn) [Compound 43, 1-[1-naphtylsulfonyl]-4-[3-(4-chlorobenzyl)-1,2,4-thiadiazol-5-yl]-2-methylpiperazine] | 35 | 0.89 (≈ 1.78 µM) |
